Test results reported in US7470684B2, “Spiropiperidine derivatives as NK3 antagonists” (Hoffmann-La Roche Inc., priority 2007, dated 2008).
Counter-ions that a name gives are not always drawn.

What follows are compounds tested against T1, human NK3 receptor (Homo sapiens, UniProt P29371) (assay: [3H]SR142801 competition binding assay). Conditions: not given.
T1 construct: expressed in transfected cells; host or cells: HEK293 cells, transiently transfected; membranes
T1 sequence (P29371 1-465): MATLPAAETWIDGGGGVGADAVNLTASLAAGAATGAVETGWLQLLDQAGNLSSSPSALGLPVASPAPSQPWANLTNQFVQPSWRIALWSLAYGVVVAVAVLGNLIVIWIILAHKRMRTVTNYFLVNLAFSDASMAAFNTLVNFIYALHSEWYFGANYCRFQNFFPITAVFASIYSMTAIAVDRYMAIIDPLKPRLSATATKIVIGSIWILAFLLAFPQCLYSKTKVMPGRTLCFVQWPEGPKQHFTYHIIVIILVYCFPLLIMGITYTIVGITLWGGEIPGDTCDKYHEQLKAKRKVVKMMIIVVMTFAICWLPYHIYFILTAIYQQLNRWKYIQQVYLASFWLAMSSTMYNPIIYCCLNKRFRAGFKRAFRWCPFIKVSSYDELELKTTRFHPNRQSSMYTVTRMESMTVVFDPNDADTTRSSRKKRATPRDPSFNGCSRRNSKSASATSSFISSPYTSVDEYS
Summary of the method: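 Membranes from HEK293 cells transiently expressing human NK3 receptor incubated 75 min at RT with [3H]SR142801 at its KD and compound (0.0003-10 μM) in pH 7.4 Tris/MnCl2 buffer. Filtration and scintillation counting, nonspecific binding with 10 μM SB222200. IC50 from Hill fit, Ki by Cheng-Prusoff, duplicates.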

Row | SMILES | Ki
1 | O=C1Nc2ccc(F)cc2C2(CCN(CCCC(C(=O)NCc3ccc(F)cc3)c3ccc(Cl)c(Cl)c3)CC2)O1 (centres unmarked) [Example 132, 2-(3,4-dichlorophenyl)-N-(4-fluorobenzyl)-5-(6-fluoro-2-oxo-1,2-dihydro-1′H-spiro[3,1-benzoxazine-4,4′-piperidin]-1′-yl)-pentanamide] | 65.7 nM
2 | CN(Cc1ccc(Cl)cc1)C(=O)[C@H](CCN1CCC2(CC1)OC(=O)N(C)c1ccc(F)cc12)c1ccc(Cl)c(Cl)c1 [Example 147, (2R)-N-(4-chlorobenzyl)-2-(3,4-dichlorophenyl)-4-(6-fluoro-1-methyl-2-oxo-1,2-dihydro-1′H-spiro[3,1-benzoxazine-4,4′-piperidin]-1′-yl)-N-methylbutanamide] | 1.8 nM

Same assay, conditions: [3H]SR142801 displacement, membranes of HEK293 cells transiently expressing recombinant human NK3 receptor; read-out: hNK3 Ki

Row | SMILES | Ki
3 | O=C1Nc2ccc(F)cc2C2(CCN(CCCC(C(=O)NCc3ccc(C(F)(F)F)cc3)c3ccc(Cl)c(Cl)c3)CC2)O1 (centres unmarked) [Example 135, 2-(3,4-dichlorophenyl)-5-(6-fluoro-2-oxo-1,2-dihydro-1′H-spiro[3,1-benzoxazine-4,4′-piperidin]-1′-yl)-N-[4-(trifluoromethyl)benzyl]pentanamide] | 90.3 nM
4 | CN(Cc1ccc(Cl)cc1)C(=O)[C@@H](CCN1CCC2(CC1)OC(=O)N(C)c1ccc(F)cc12)c1ccc(Cl)c(Cl)c1 [Example 148, (2S)-N-(4-chlorobenzyl)-2-(3,4-dichlorophenyl)-4-(6-fluoro-1-methyl-2-oxo-1,2-dihydro-1′H-spiro[3,1-benzoxazine-4,4′-piperidin]-1′-yl)-N-methylbutanamide] | 0.4 nM

Same assay, conditions: hNK3 Ki, [3H]SR142801 displacement, membranes of HEK293 cells transiently expressing recombinant human NK3 receptor

Row | SMILES | Ki
5 | CN(Cc1ccc(Cl)cc1)C(=O)C(CCCN1CCC2(CC1)OC(=O)Nc1ccc(F)cc12)c1ccc(Cl)c(Cl)c1 (centres unmarked) [Example 120, N-(4-chlorobenzyl)-2-(3,4-dichlorophenyl)-5-(6-fluoro-2-oxo-1,2-dihydro-1′H-spiro[3,1-benzoxazine-4,4′-piperidin]-1′-yl)-N-methylpentanamide] | 46.3 nM
6 | CN(Cc1ccc(C(F)(F)F)cc1)C(=O)C(CCCN1CCC2(CC1)OC(=O)Nc1ccc(F)cc12)c1ccc(Cl)c(Cl)c1 (centres unmarked) [Example 121, 2-(3,4-dichlorophenyl)-5-(6-fluoro-2-oxo-1,2-dihydro-1′H-spiro[3,1-benzoxazine-4,4′-piperidin]-1′-yl)-N-methyl-N-[4-(trifluoromethyl)benzyl]pentanamide] | 64.7 nM
7 | O=C1Nc2ccc(F)cc2C2(CCN(CCCC(C(=O)NCc3ccc(Cl)cc3)c3ccc(Cl)c(Cl)c3)CC2)O1 (centres unmarked) [Example 125, N-(4-chlorobenzyl)-2-(3,4-dichlorophenyl)-5-(6-fluoro-2-oxo-1,2-dihydro-1′H-spiro[3,1-benzoxazine-4,4′-piperidin]-1′-yl)pentanamide] | 98.3 nM
8 | CN(Cc1cccc(C(F)(F)F)c1)C(=O)C(CCCN1CCC2(CC1)OC(=O)Nc1ccc(F)cc12)c1ccc(Cl)c(Cl)c1 (centres unmarked) [Example 130, 2-(3,4-dichlorophenyl)-5-(6-fluoro-2-oxo-1,2-dihydro-1′H-spiro[3,1-benzoxazine-4,4′-piperidin]-1′-yl)-N-methyl-N-[3-(trifluoromethyl)benzyl]pentanamide] | 91.9 nM
9 | CN(Cc1ccc(F)cc1)C(=O)C(CCCN1CCC2(CC1)OC(=O)Nc1ccc(F)cc12)c1ccc(Cl)c(Cl)c1 (centres unmarked) [Example 131, 2-(3,4-dichlorophenyl)-N-(4-fluorobenzyl)-5-(6-fluoro-2-oxo-1,2-dihydro-1′H-spiro[3,1-benzoxazine-4,4′-piperidin]-1′-yl)-N-methylpentanamide] | 69.2 nM
10 | Cc1ccc(CN(C)C(=O)C(CCCN2CCC3(CC2)OC(=O)Nc2ccc(F)cc23)c2ccc(Cl)c(Cl)c2)cc1 (centres unmarked) [Example 138, 2-(3,4-dichlorophenyl)-5-(6-fluoro-2-oxo-1,2-dihydro-1′H-spiro[3,1-benzoxazine-4,4′-piperidin]-1′-yl)-N-methyl-N-(4-methylbenzyl)pentanamide] | 95.4 nM
11 | C[C@H](NC(=O)[C@H](CCN1CCC2(CC1)OC(=O)Nc1ccc(F)cc12)c1ccc(Cl)c(Cl)c1)c1ccccc1 [Example 146, (2R)-2-(3,4-dichlorophenyl)-4-(6-fluoro-2-oxo-1,2-dihydro-1′H-spiro[3,1-benzoxazine-4,4′-piperidin]-1′-yl)-N-[(1S)-1-phenylethyl]butanamidehydrochloride] | 5.7 nM
